Reference: ChEMBL document CHEMBL1909046, “DrugMatrix in vitro pharmacology data”

Tests used:
[1] = target: T1, Muscarinic acetylcholine receptor M2 (Homo sapiens, UniProt P08172); format: cell membranes, CHO-K1, Membrane; settings: cho-k1
T1 sequence (P08172 whole entry): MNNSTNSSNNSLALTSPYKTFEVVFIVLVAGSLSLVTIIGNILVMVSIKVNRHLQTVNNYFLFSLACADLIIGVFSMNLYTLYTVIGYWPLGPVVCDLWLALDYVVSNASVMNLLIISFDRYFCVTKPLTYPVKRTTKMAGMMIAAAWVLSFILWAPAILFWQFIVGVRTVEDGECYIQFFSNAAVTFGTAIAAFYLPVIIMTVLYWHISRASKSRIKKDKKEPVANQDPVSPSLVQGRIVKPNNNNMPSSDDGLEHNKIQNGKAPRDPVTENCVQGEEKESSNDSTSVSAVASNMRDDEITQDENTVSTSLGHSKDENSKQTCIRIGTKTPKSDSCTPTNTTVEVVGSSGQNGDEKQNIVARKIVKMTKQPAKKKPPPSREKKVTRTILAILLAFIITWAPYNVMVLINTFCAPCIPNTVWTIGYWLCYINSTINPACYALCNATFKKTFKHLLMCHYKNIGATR

[2] = target: 5-hydroxytryptamine receptor 6 (Homo sapiens, UniProt P50406); format: cell membranes, HeLa, Membrane; settings: hela
5-hydroxytryptamine receptor 6, sequence (P50406 whole entry): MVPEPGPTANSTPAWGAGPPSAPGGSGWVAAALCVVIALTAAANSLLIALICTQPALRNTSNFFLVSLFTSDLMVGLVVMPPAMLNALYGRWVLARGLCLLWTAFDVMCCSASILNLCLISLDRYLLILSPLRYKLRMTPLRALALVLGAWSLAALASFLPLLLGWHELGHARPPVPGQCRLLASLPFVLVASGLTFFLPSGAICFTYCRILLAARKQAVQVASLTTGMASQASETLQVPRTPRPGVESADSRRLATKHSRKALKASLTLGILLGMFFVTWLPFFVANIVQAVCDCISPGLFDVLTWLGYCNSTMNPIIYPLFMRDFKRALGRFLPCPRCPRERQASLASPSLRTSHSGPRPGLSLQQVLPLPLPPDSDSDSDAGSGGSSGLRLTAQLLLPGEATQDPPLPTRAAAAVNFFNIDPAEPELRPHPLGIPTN

[3] = target: Glycine receptor (Rattus norvegicus, UniProt P22771+P24524+P07727+P20781); format: cell membranes, Wistar, Spinal cord, Membrane
[4] = target: T2, Leukotriene C4 synthase (Cavia porcellus, UniProt A6XA80); format: tissue-based, Lung;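 note: enzyme inhibition assay of leukotriene C4 synthase, using LTA4 as the substrate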
T2 sequence (A6XA80 whole entry): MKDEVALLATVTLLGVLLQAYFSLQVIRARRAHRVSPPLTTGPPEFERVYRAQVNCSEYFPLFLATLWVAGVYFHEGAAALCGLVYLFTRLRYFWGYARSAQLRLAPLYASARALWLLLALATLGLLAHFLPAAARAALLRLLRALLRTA

[5] = target: T3, Endothelin-1 receptor (Homo sapiens, UniProt P25101); format: cell membranes, Membrane; settings: cho-k1
T3 sequence (P25101 whole entry): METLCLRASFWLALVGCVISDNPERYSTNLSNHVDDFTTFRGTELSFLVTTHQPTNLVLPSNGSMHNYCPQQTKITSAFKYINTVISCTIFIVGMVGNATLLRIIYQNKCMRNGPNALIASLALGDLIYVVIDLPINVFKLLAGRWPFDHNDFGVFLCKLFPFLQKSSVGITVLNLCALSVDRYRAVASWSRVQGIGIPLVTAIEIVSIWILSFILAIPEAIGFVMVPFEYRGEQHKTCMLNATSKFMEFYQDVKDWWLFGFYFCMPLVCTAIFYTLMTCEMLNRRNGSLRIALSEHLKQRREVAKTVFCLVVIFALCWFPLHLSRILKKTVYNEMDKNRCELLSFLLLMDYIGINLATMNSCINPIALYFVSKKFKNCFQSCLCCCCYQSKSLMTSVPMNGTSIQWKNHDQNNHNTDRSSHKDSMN

[6] = target: T4, Caspase-1 (Homo sapiens, UniProt P29466); set-up: species or system Escherichia coli;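 note: Caspase-1 enzyme inhibition assay with a peptide substrate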
T4 sequence (P29466 whole entry): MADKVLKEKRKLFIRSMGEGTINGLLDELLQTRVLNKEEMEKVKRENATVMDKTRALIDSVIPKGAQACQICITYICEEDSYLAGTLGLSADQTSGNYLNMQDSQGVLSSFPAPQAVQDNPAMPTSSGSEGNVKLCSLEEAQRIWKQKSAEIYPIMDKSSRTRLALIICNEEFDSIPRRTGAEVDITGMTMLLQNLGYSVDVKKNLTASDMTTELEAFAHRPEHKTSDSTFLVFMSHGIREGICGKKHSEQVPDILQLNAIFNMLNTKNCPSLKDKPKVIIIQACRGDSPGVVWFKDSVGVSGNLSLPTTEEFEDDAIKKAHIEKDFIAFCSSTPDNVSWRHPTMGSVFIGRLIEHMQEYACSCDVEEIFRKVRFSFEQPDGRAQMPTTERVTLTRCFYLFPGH

[7] = target: T5, Neuropeptide Y receptor type 1 (Homo sapiens, UniProt P25929); format: cell membranes, Membrane; settings: sk-n-mc
T5 sequence (P25929 whole entry): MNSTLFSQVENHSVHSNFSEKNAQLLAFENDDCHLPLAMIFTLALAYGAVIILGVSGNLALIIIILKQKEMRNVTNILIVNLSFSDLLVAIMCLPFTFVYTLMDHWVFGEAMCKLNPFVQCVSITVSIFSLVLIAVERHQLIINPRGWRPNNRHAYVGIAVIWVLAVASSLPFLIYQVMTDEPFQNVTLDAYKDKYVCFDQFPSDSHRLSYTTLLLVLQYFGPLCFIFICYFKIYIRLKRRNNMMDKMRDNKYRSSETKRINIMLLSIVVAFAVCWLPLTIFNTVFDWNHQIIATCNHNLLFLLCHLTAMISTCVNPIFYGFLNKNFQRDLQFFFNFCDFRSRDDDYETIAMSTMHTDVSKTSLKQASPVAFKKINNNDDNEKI

[8] = target: Cytochrome P450 2C19 (Homo sapiens, UniProt P33261); settings: bti-tn-5b1-4
Cytochrome P450 2C19, sequence (P33261 whole entry): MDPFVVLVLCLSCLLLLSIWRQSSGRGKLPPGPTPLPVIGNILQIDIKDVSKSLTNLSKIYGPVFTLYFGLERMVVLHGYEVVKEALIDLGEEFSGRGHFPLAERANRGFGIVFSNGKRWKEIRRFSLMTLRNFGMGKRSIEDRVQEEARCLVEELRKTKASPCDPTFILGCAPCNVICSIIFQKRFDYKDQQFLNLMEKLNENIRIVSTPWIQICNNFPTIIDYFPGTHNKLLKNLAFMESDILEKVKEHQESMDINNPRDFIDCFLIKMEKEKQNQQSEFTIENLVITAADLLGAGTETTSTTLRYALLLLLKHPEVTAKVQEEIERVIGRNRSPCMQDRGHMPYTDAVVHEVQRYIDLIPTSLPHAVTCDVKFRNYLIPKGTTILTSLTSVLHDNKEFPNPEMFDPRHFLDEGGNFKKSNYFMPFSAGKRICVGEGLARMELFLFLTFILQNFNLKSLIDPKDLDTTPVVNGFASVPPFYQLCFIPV
Note: in other assays of this panel Not Active means under 50% inhibition at 10 µM.

O=C1C(CC[S+]([O-])c2ccccc2)C(=O)N(c2ccccc2)N1c1ccccc1 (stereo unspecified) [SULFINPYRAZONE]
Not Active: IC50 [1] | IC50 [2] | IC50 [3] | IC50 [4] | IC50 [5] | IC50 [6] | IC50 [7] | IC50 [8] | Ki [8]

CCN1CCC[C@H]1CNC(=O)c1cc(S(N)(=O)=O)ccc1OC [LEVOSULPIRIDE]
Not Active: IC50 [1] | IC50 [2] | IC50 [3] | IC50 [4] | IC50 [5] | IC50 [6] | IC50 [7] | IC50 [8] | Ki [8]

CCN(CC)CCNC(=O)c1cc(S(C)(=O)=O)ccc1OC [TIAPRIDE]
Not Active: IC50 [1] | IC50 [2] | IC50 [3] | IC50 [4] | IC50 [5] | IC50 [6] | IC50 [7] | IC50 [8] | Ki [8]

CCCCOc1cc(CC2CNC(=O)N2)ccc1OC (stereo unspecified) [RO-201724]
Not Active: IC50 [1] | IC50 [2] | IC50 [3] | IC50 [4] | IC50 [5] | IC50 [6] | IC50 [7] | IC50 [8] | Ki [8]
